Assay results reported in the supplement of paper PMC11208160.

Experiment: recombinant UMI read abundance after kanamycin selection (control-corrected) (log10(CPM+1)); higher = more efficient recombination; extreme values may be limits of the assay; sequences stand for … in AGTGCAGAGAAAATCGGCCAGTTTTCTCTGCCTGCAGTCCGCATGCCGTGGGACCCCTTGGGTTCTAACCTGTTGCCTAGATTTATGCAGCGGACTGCCTTTCTCCCAAAGTGATAAACCGG…AGGTTGGTTTCACT; site = the 11-nt donor
In short: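 Counts of recombinant UMIs were reported as log10(CPM+1). Before that, they were converted to CPM, averaged over replicates and scaled using control-derived factors. They came from PCR across the donor–target junction after Escherichia coli carrying the pair library and target plasmid was plated on IPTG (0.07 mM) plus kanamycin, or unselected, in two replicates each.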
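Note: IS621 bridge recombinase in Escherichia coli cells against a fixed T5 target plasmid.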

Going from “AATAGTACATGGACCGGTTTTCCCGGTAATCCGTATTTGCG (site AATAGTACTCG)” to “CGTAAGACATGGACCGGTTTTCCCGGTAATCCGTATTTGCA (site AGGAAGACTTG)”, the “recombinant UMI read abundance (log10)” value falls from 0.989 to 0.

“ATCCACGCATGGACCGGTTTTCCCGGTAATCCGTATTTGAG (site ATCCAGGCTCT)” and “TCATGCCCATGGACCGGTTTTCCCGGTAATCCGTATTTGGC (site TCATGCCCTGC)” are within 0.2 log units of each other in “recombinant UMI read abundance (log10)” value: 0.0164 for the first, 0 for the second.

Going from “GAAAATTCATGGACCGGTTTTCCCGGTAATCCGTATTTGTT (site GAAAATTCTAA)” to “CATGGACCATGGACCGGTTTTCCCGGTAATCCGTATTTGGG (site CATGGACCTCC)”, the “recombinant UMI read abundance (log10)” value falls from 0.97 to 0.0171.

Compared with “CAGCACGCATGGACCGGTTTTCCCGGTAATCCGTATTTGGG (site TAGCACGCTCC)”, “GCCAACACATGGACCGGTTTTCCCGGTAATCCGTATTTGAT (site GCCAACACTAT)” is higher in “recombinant UMI read abundance (log10)” value: 0.0838 for the first, 1.9 for the second.

Compared with “CTATCATCATGGACCGGTTTTCCCGGTAATCCGTATTTGAT (site CTATCATCTAT)”, “AGAGTAACATGGACCGGTTTTCCCGGTAATCCGTATTTGCA (site AGAGTAACTTG)” is higher in “recombinant UMI read abundance (log10)” value: 0.00941 for the first, 2.71 for the second.

Compared with “CGTTTCGCATGGACCGGTTTTCCCGGTAATCCGTATTTGCT (site CGTTTCGCTAG)”, “CGGACATCATGGACCGGTTTTCCCGGTAATCCGTATTTGCT (site CGGACCTCTAG)” is lower in “recombinant UMI read abundance (log10)” value: 0.892 for the first, 0.303 for the second.

Going from “CCAATATCATGGACCGGTTTTCCCGGTAATCCGTATTTGAG (site CCAATATCTCT)” to “GCAGTATCATGGACCGGTTTTCCCGGTAATCCGTATTTGCA (site CCAGTATCTTG)”, the “recombinant UMI read abundance (log10)” value rises from 1.21 to 2.09.

Going from “AATGCCTCATGGACCGGTTTTCCCGGTAATCCGTATTTGAG (site AATGCCTCTCT)” to “CACGGCCCATGGACCGGTTTTCCCGGTAATCCGTATTTGAT (site CACGGCCCTAG)”, the “recombinant UMI read abundance (log10)” value falls from 0.693 to 0.

First: CTGCTCCCATGGACCGGTTTTCCCGGTAATCCGTATTTGCT (site CTGCTCCCTAG)
Second: GGAGGGGCATGGACCGGTTTTCCCGGTAATCCGTATTTGGT (site GGAGAGGCTAC)
The “recombinant UMI read abundance (log10)” value of the first is higher: 1.78 for the first, 0.335 for the second.

First: CATATCTCATGGACCGGTTTTCCCGGTAATCCGTATTTGAC (site CATATCTCTGT)
Second: AACTATACATGGACCGGTTTTCCCGGTAATCCGTATTTGAC (site ATCTATACTGT)
The “recombinant UMI read abundance (log10)” value of the first is higher: 2.52 for the first, 1.94 for the second.

Going from “GTTAAAACATGGACCGGTTTTCCCGGTAATCCGTATTTGGC (site GTTAGAACTGC)” to “CGATCTTCATGGACCGGTTTTCCCGGTAATCCGTATTTGCA (site CGATCTTCTTG)”, the “recombinant UMI read abundance (log10)” value rises from 0.02 to 0.912.

First: CAGCACGCATGGACCGGTTTTCCCGGTAATCCGTATTTGGG (site GAGCACGCTCC)
Second: TGAAAGACATGGACCGGTTTTCCCGGTAATCCGTATTTGCA (site AGGAAGACTTG)
The “recombinant UMI read abundance (log10)” value of the first is lower: 0.0111 for the first, 2.91 for the second.

First: CAATCGTCATGGACCGGTTTTCCCGGTAATCCGTATTTGCT (site CAATCGTCTAG)
Second: CGGGAGCCATGGACCGGTTTTCCCGGTAATCCGTATTTGAT (site CGGGACCCTAT)
The “recombinant UMI read abundance (log10)” value of the first is higher: 2.84 for the first, 0.00515 for the second.

Going from “CCTCAAGCATGGACCGGTTTTCCCGGTAATCCGTATTTGAT (site CCTAAAGCTAT)” to “CTCTTCTCATGGACCGGTTTTCCCGGTAATCCGTATTTGCT (site CTCTTCTCTAG)”, the “recombinant UMI read abundance (log10)” value rises from 0 to 2.6.

First: CTACTAACATGGACCGGTTTTCCCGGTAATCCGTATTTGCA (site CTACTAACTTA)
Second: CCGCAGTCATGGACCGGTTTTCCCGGTAATCCGTATTTGGC (site CCGCAGTCTGC)
The “recombinant UMI read abundance (log10)” value of the first is higher: 1.4 for the first, 0 for the second.

Going from “TCGGAATCATGGACCGGTTTTCCCGGTAATCCGTATTTGCG (site TCGGAATCTCG)” to “ACGGGCACATGGACCGGTTTTCCCGGTAATCCGTATTTGGT (site ACGGGCACTAC)”, the “recombinant UMI read abundance (log10)” value falls from 1.26 to 0.805.

First: ACTAGTGCATGGACCGGTTTTCCCGGTAATCCGTATTTGGT (site ACTAGTACTAC)
Second: CCCCACTCATGGACCGGTTTTCCCGGTAATCCGTATTTGTA (site CCCCACACTTA)
The “recombinant UMI read abundance (log10)” value of the first is higher: 0.998 for the first, 0 for the second.

First: CTCCCTTCATGGACCGGTTTTCCCGGTAATCCGTATTTGAG (site CTCCCTGCTCT)
Second: TAGGAGTCATGGACCGGTTTTCCCGGTAATCCGTATTTGCG (site TAGGAGTCTCG)
The “recombinant UMI read abundance (log10)” value of the first is lower: 0.00848 for the first, 3.24 for the second.

“AGCCTCTCATGGACCGGTTTTCCCGGTAATCCGTATTTGAC (site AGCCTGTCTGT)” and “TTGCCGTCATGGACCGGTTTTCCCGGTAATCCGTATTTGGT (site TTGCCGTCTAC)” are within 0.2 log units of each other in “recombinant UMI read abundance (log10)” value: 0 for the first, 0.144 for the second.

First: AACTATACATGGACCGGTTTTCCCGGTAATCCGTATTTGAC (site AGCTATACTGT)
Second: AATCTCGCATGGACCGGTTTTCCCGGTAATCCGTATTTGCG (site AATCTCGCTCG)
The “recombinant UMI read abundance (log10)” value of the first is higher: 0.797 for the first, 0.0146 for the second.

Compared with “TCCCGTTCATGGACCGGTTTTCCCGGTAATCCGTATTTGAA (site TCCCGTTCTTT)”, “CAAGCAGCATGGACCGGTTTTCCCGGTAATCCGTATTTGCA (site CAAGCAGCTTG)” is higher in “recombinant UMI read abundance (log10)” value: 0 for the first, 2.81 for the second.

“CCCATCTCATGGACCGGTTTTCCCGGTAATCCGTATTTGGG (site CCCCTCTCTCC)” and “CCGTTAGCATGGACCGGTTTTCCCGGTAATCCGTATTTGTG (site GCGTTAGCTCA)” are within 0.2 log units of each other in “recombinant UMI read abundance (log10)” value: 0.078 for the first, 0 for the second.

First: CTAGAATCATGGACCGGTTTTCCCGGTAATCCGTATTTGAC (site CTAGTATCTGT)
Second: TAATTGACATGGACCGGTTTTCCCGGTAATCCGTATTTGCT (site TAGTTGACTAG)
The “recombinant UMI read abundance (log10)” value of the first is higher: 2 for the first, 1.39 for the second.

“CTCATACCATGGACCGGTTTTCCCGGTAATCCGTATTTGGT (site CTCATACCTAC)” and “CAGTCGACATGGACCGGTTTTCCCGGTAATCCGTATTTGGG (site TAGTCGACTCC)” are within 0.2 log units of each other in “recombinant UMI read abundance (log10)” value: 0 for the first, 0.01 for the second.

First: CCCGGTCCATGGACCGGTTTTCCCGGTAATCCGTATTTGTA (site CCCGGTCCTTG)
Second: CCGGTGGCATGGACCGGTTTTCCCGGTAATCCGTATTTGAC (site CCGGTGGCTGT)
The “recombinant UMI read abundance (log10)” value of the first is lower: 0 for the first, 1.58 for the second.

Compared with “AAAGTAACATGGACCGGTTTTCCCGGTAATCCGTATTTGCA (site ACAGTATCTTG)”, “ATAAGGCCATGGACCGGTTTTCCCGGTAATCCGTATTTGAC (site ATAAGGCCTGG)” is lower in “recombinant UMI read abundance (log10)” value: 2.56 for the first, 0 for the second.

“TCATAGGCATGGACCGGTTTTCCCGGTAATCCGTATTTGTT (site TCATAGGCTAA)” and “CCAAAAGCATGGACCGGTTTTCCCGGTAATCCGTATTTGAT (site CCAAAAGCTAT)” are within 0.2 log units of each other in “recombinant UMI read abundance (log10)” value: 1.27 for the first, 1.34 for the second.

Compared with “CCGTCAGCATGGACCGGTTTTCCCGGTAATCCGTATTTGTG (site CCGTTAGCTCA)”, “CTCCCTACATGGACCGGTTTTCCCGGTAATCCGTATTTGAA (site CTCCCTACTTT)” is higher in “recombinant UMI read abundance (log10)” value: 0.00541 for the first, 0.46 for the second.

Going from “GAGAATACATGGACCGGTTTTCCCGGTAATCCGTATTTGCA (site TAGAATACTTG)” to “GGAAGTGCATGGACCGGTTTTCCCGGTAATCCGTATTTGAA (site GGAAGTGCTTT)”, the “recombinant UMI read abundance (log10)” value rises from 0.944 to 2.27.

First: AGGAAGACATGGACCGGTTTTCCCGGTAATCCGTATTTGCA (site AGGAAGACTTC)
Second: CGAGCGACATGGACCGGTTTTCCCGGTAATCCGTATTTGTT (site CGAACGACTAA)
The “recombinant UMI read abundance (log10)” value of the first is lower: 0.0105 for the first, 0.607 for the second.

“AGGAAGACATGGACCGGTTTTCCCGGTAATCCGTATTTGCA (site AGGAGGCCTTG)” and “CGATCGACATGGACCGGTTTTCCCGGTAATCCGTATTTGTT (site CGATCGGCTAA)” are within 0.2 log units of each other in “recombinant UMI read abundance (log10)” value: 0 for the first, 0.00691 for the second.

“CGGACATCATGGACCGGTTTTCCCGGTAATCCGTATTTGCT (site CGGACATCTAC)” and “CATTAGACATGGACCGGTTTTCCCGGTAATCCGTATTTGAG (site CTTTAGACTCT)” are within 0.2 log units of each other in “recombinant UMI read abundance (log10)” value: 0 for the first, 0.0129 for the second.

“CGAGGAGCATGGACCGGTTTTCCCGGTAATCCGTATTTGGG (site CGAGGACCTCC)” and “CGAGCGCCATGGACCGGTTTTCCCGGTAATCCGTATTTGTG (site CTAGCGCCTCA)” are within 0.2 log units of each other in “recombinant UMI read abundance (log10)” value: 0.0303 for the first, 0.0326 for the second.

First: ACTAGAGCATGGACCGGTTTTCCCGGTAATCCGTATTTGGT (site ACTAGTGCTAC)
Second: GCTTGACCATGGACCGGTTTTCCCGGTAATCCGTATTTGAT (site GCTTGCCCTAT)
The “recombinant UMI read abundance (log10)” value of the first is higher: 0.4 for the first, 0.00707 for the second.

First: TATGTGTCATGGACCGGTTTTCCCGGTAATCCGTATTTGAC (site CATGTGTCTGT)
Second: ATATGCACATGGACCGGTTTTCCCGGTAATCCGTATTTGTA (site TTATGCACTTA)
The “recombinant UMI read abundance (log10)” value of the first is lower: 0 for the first, 1.66 for the second.

First: TCGGACTCATGGACCGGTTTTCCCGGTAATCCGTATTTGTT (site TCGGACTCTAA)
Second: CGATCGGCATGGACCGGTTTTCCCGGTAATCCGTATTTGTT (site CGATCGCCTAA)
The “recombinant UMI read abundance (log10)” value of the first is higher: 3.01 for the first, 0.0111 for the second.

First: GCTTATCCATGGACCGGTTTTCCCGGTAATCCGTATTTGCT (site GGTTATCCTAG)
Second: ACACATCCATGGACCGGTTTTCCCGGTAATCCGTATTTGAA (site ACACATCCTTT)
The “recombinant UMI read abundance (log10)” value of the first is lower: 0 for the first, 1.72 for the second.

In the case of “TCACGTACATGGACCGGTTTTCCCGGTAATCCGTATTTGAT (site TCACGTACTAT)”, the “recombinant UMI read abundance (log10)” value is reported as 0.589.
